The results in this text go back to patent US20060205774A1, “4-(4-(Heterocyclylakoxy) phenyl-1-(heterocyclyl-carbonyl) piperidine derivavites and related compounds as histamine h3 antagonists for the treatment of neurological diseases such as alzheimer's” (priority 2003, published 2006).

The target in this experiment is T1, histamine H3 receptor (Homo sapiens, UniProt Q9Y5N1).
T1 construct: expressed in transfected cells; host or cells: CHO K1 cells carrying pSwitch, transfected with pGeneH3, mifepristone-induced; clone 3H3; membrane preparation
T1 sequence (Q9Y5N1 whole entry): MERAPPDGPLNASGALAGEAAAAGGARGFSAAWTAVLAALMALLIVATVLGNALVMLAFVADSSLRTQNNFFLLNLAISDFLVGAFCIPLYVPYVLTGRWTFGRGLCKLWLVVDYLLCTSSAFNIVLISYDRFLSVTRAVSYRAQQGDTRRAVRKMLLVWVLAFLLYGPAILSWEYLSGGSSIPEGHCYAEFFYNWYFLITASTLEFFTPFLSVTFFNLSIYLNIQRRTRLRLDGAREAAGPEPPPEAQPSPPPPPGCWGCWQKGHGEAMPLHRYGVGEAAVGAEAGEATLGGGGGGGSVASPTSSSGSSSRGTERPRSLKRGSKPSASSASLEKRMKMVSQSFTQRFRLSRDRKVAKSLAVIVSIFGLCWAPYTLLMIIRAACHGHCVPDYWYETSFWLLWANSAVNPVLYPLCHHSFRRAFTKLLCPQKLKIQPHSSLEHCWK
Nature of the experiment: Histamine H3 functional antagonist assay (GTPγS SPA on membranes). Type of experiment: biochemical. The following applies: membranes of CHO K1 cells expressing human histamine H3; [35S]GTPγS; histamine 0.3 μM. As for the experimental part:
A membrane preparation containing histamine H3 receptors may be prepared in accordance with the following procedures:
Ligated DNA was transformed into competent DH5α E. coli host bacterial cells and plated onto Luria Broth (LB) agar containing Zeocin™ (an antibiotic which allows the selection of cells expressing the sh ble gene which is present on pGene and pSwitch) at 50 μg ml^−1. Colonies containing the re-ligated plasmid were identified by restriction analysis. DNA for transfection into mammalian cells was prepared from 250 ml cultures of the host bacterium containing the pGeneH3 plasmid and isolated using a DNA preparation kit (Qiagen Midi-Prep) as per manufacturers guidelines (Qiagen).
CHO K1 cells previously transfected with the pSwitch regulatory plasmid (InVitrogen) were seeded at 2×10e6 cells per T75 flask in Complete Medium, containing Hams F12 (GIBCOBRL, Life Technologies) medium supplemented with 10% v/v dialysed foetal bovine serum, L-glutamine, and hygromycin (100 μg ml^−1), 24 hours prior to use. Plasmid DNA was transfected into the cells using Lipofectamine plus according to the manufacturers guidelines (InVitrogen). 48 hours post transfection cells were placed into complete medium supplemented with 500 μg ml^−1 Zeocin™.
10-14 days post selection 10 nM Mifepristone (InVitrogen), was added to the culture medium to induce the expression of the receptor. […] Approximately 1×10e7 cells were examined for receptor expression by staining with a rabbit polyclonal antibody, 4a, raised against the N-terminal domain of the histamine H3 receptor, incubated on ice for 60 minutes, followed by two washes in sorting medium. […] Following two further washes with Sorting Medium, cells were filtered through a 50 μm Filcon™ (BD Biosciences) and then analysed on a FACS Vantage SE Flow Cytometer fitted with an Automatic Cell Deposition Unit. […] Positively stained cells were sorted as single cells into 96-well plates, containing Complete Medium containing 500 μg ml^−1 Zeocin™ and allowed to expand before reanalysis for receptor expression via antibody and ligand binding studies. […]
`CC(C)N1CCC(Oc2ccc(C3CCN(C(=O)c4ccc(C#N)cc4)CC3)cc2)CC1` [Example E12, 4-{[4-(4-{[1-(1-Methylethyl)-4-piperidinyl]oxy}phenyl)-1-piperidinyl]carbonyl}benzonitrile]: the Kb is less than 1 nM. Under `CC(C)N1CCC(Oc2ccc(C3CCN(C(=O)c4ccc(C#N)nc4)CC3)cc2)CC1` [Example E51, 5-{[4-(4-{[1-(1-Methylethyl)-4-piperidinyl]oxy}phenyl)-1-piperidinyl]carbonyl}-2-pyridinecarbonitrile] stands less than 1 nM; under `CC(C)N1CCC(Oc2ccc(C3CCN(C(=O)c4ccc(C(F)(F)F)nc4)CC3)cc2)CC1` [Example E52, 5-{[4-(4-{[1-(1-Methylethyl)-4-piperidinyl]oxy}phenyl)-1-piperidinyl]carbonyl}-2-(trifluoromethyl)pyridine], less than 1 nM.

Broadly, the Kb is the equilibrium dissociation constant of an antagonist, usually derived from a functional assay. Low values mean a more potent antagonist, high ones a less potent antagonist.
